Key:
[1] = target: T1, LIM kinase 1 (LIMK1) (Homo sapiens, UniProt P53667); test: apparent Km determination in luciferase ATP-depletion kinase assay with cofilin; assay type: biochemical
[2] = target: T1, LIM kinase 1 (LIMK1); test: Kinase Glo luciferase ATP-depletion assay with recombinant cofilin, […] ATP; assay type: biochemical

T1 sequence (P53667 339-604 limits assumed): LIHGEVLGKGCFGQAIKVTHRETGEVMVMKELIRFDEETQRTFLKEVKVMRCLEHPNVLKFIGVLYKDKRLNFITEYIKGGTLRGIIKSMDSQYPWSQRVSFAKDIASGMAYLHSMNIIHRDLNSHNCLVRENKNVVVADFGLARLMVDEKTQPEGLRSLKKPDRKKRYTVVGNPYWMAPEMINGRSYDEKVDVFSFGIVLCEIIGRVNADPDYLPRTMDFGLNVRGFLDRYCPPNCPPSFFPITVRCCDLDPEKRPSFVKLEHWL

| Km [1] [µM] | IC50 [2] [nM] | Compound |
| --- | --- | --- |
| 10 to 20 | – | Nc1ncnc2c1ncn2[C@@H]1O[C@H](COP(=O)(O)OP(=O)(O)OP(=O)(O)O)[C@@H](O)[C@H]1O [ATP] |
| – | 19 | COc1c(C=O)c(O)cc2c1C(=O)c1ccccc1C2=O [damnacanthal] |

Reference: paper PMC3935456 (Journal of biomolecular screening, 2011)
